Experimental findings from patent US8815852B2, “Carbamoyloxy arylalkan arylpiperazine analgesics” (SK Biopharmaceuticals Co., Ltd., priority 2007, dated 2014) are described below.

Test [1] deals with male ICR mouse. The test can be described thus: Acetic acid-induced writhing test in mouse. In kind it is in vivo. The note with it: Mus musculus; for inhibition in vivo at 10 mg/kg: at 10 po (method: 10 mg/kg oral, 1 hour before acetic acid), read-out: AA Writhing: Suppression ratio of Pain response; for ED50: unit not given (method doses in mg/kg), read-out: AA Writhing: ED50. On the procedure: 2. Acetic Acid-Induced Writhing Test in Mouse
An acetic acid-induced writhing test is one of models for measuring an analgesic effect of drugs. A test material dissolved in a suitable vehicle was orally administered to a male ICR mouse weighing 30 to 35 g at an amount of 10 mg/kg. After 1 hour of the oral administration, […] of an aqueous 0.8% acetic acid solution was intraperitoneally injected into the male ICR mouse to induce the abdominal pain of the male ICR mouse. Right after the administration of acetic acid, the male ICR mouse was put into an empty cage, and the number of writhing behaviors of the mice was counted for 10 minutes. The term “writhing represents a reflex action in which the mouse overtly extends its abdomen by stretching its hind legs due to the abdominal pain. The analgesic effect of the test material is represented by the ‘suppression ratio of pain response’ {[(Writhing number of Vehicle-administered group−Writhing number of Test material-administered group)/(Writhing number of Vehicle-administered group)]×100%} or 50% of Effective amount (ED50 (median effective dose); an amount of test material that is required to suppress 50% of pain behaviors) of Test material. The ED50 (median effective dose) was determined by calculating the suppression ratio of pain response in at least three doses of test materials and subjecting to the linear regression.
For orientation: An intraperitoneal irritant provokes the stretching counted in writhing tests.

For test [2], the target named is 5-HT2A receptor (Rattus norvegicus (Rat), UniProt P14842). The test can be described thus: Binding to 5-HT2A receptor ([3H]-Ketanserin, rat cortical membranes). On the set-up: species or system Sprague-Dawley (SD) rats. The note with it: for inhibition at 1 µM: 1 h, read-out: 5-HT2A: Suppression; for IC50: 0.5 nM [3H]-Ketanserin, read-out: 5-HT2A: IC50 (Concentration required to be 50% suppressed). On the procedure: Binding to 5-HT2A Receptor
6-week-old Sprague-Dawley (SD) rats were anesthetized in an ether container for 5 minutes, brains were separated from rats, and cortical regions were then separated from the brains of the rats. The cortical regions of the rats were put into a Tris-HCl buffer solution (50 mM, pH 7.7) and homogenized, and the homogenate was centrifuged twice at 4° C. at a rotary speed of 50,000 g to obtain a precipitate (membrane protein). The precipitate was put into a buffer solution, and homogenized, which was used later as a protein source. 0.5 nM [3H]-Ketanserin was used as a radioactive isotope, and 10 uM serotonin was used to remove non-specific bindings. 25 ul of the compound, 100 ul of an aqueous radioactive isotope solution, and 100 ul of the protein source were put together, and kept at 25° C. for 1 hour. The resulting mixture was filtered with a membrane filter in a 96-well harvester when the 96-well plate reaction was completed. The competitivity of the compound to [3H]-Ketanserin was determined by taking the membrane filter and measuring the radioactivity in a scintillation counter, and an IC50 value was determined by measuring the increasing concentration of the compound. The specific reaction of the compound accounted for 90% or more. The general experiments were carried out according to the method by Leysen et al. (1982, Eur. J. Pharmacol).

In test [3] the target is 5-HT1A receptor (Rattus norvegicus (Rat), UniProt P19327). The test can be described thus: Binding to 5-HT1A receptor ([3H]-8-OH-DPAT, rat cortical membranes). The arrangement: species or system Sprague-Dawley (SD) rats. The note with it: for inhibition at 1 µM: 1 h, read-out: 5-HT1A: Suppression; for IC50: 2 nM [3H]-8-OH-DPAT, read-out: 5-HT1A: IC50 (Concentration required to be 50% suppressed). On the procedure: Binding to 5-HT1A Receptor
6-week-old Sprague-Dawley (SD) rats were anesthetized in an ether container for 5 minutes, brains were separated from rats, and cortical regions were then separated from the brains of the rats. The cortical regions of the rats were put into a Tris-HCl buffer solution (50 mM, pH 7.4) and homogenized, and the homogenate was centrifuged twice at 4? at a rotary speed of 50,000 g to obtain a precipitate (membrane protein). The precipitate was put into a buffer solution, and homogenized, which was used later as a protein source. 2 nM [3H]-8-OH-DPAT was used as a radioactive isotope, and 10 uM serotonin was used to remove non-specific bindings. 25 ul of the compound, 100 ul of an aqueous radioactive isotope solution, and 100 ul of the protein source were put together, and kept at 25° C. for 1 hour. The resulting mixture was filtered with a membrane filter in a 96-well harvester when the 96-well plate reaction was completed. The competitivity of the compound to [3H]-8-OH-DPAT was determined by taking the membrane filter and measuring the radioactivity of the membrane filter in a scintillation counter, and an IC50 value was determined by measuring the increasing concentration of the compound. The specific reaction of the compound accounted for 90% or more. The general experiments were carried out according to the method by Middlemiss et al. (1984, Eur. J. Pharmacol.).

Molecules are shown by their SMILES. Read-outs that look alike come from different tables or passages of the source.

Sequence of 5-HT1A receptor (P19327 whole entry): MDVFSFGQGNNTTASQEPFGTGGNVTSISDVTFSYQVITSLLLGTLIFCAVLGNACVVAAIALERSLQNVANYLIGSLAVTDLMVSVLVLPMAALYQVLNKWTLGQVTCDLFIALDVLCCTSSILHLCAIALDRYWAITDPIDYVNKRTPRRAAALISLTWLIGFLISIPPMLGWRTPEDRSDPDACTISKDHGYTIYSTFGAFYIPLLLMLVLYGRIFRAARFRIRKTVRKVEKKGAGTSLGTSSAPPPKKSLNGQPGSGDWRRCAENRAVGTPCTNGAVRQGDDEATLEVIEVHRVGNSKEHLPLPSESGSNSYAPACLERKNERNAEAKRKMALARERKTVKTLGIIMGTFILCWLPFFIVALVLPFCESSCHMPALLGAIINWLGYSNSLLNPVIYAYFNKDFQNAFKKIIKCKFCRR
Sequence of 5-HT2A receptor (P14842 whole entry): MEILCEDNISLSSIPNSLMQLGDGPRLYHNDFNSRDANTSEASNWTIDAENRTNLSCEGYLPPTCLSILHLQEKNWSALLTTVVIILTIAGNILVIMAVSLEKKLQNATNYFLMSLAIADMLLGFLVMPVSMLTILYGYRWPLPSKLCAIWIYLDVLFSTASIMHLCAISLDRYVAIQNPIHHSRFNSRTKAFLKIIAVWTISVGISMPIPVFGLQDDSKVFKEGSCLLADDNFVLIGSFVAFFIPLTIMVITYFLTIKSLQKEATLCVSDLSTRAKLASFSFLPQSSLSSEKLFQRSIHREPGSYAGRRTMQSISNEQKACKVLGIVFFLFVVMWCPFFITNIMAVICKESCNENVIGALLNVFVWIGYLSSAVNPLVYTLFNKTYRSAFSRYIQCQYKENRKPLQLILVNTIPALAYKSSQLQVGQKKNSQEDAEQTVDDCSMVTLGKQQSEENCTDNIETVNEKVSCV

As to `NC(=O)OC(CCN1CCN(c2ccccc2)CC1)c1cccc([N+](=O)[O-])c1` (stereo not drawn) [Example 4, Carbamic acid 1-(3-nitro-phenyl)-3-(4-phenyl-piperazin-1-yl)-propyl ester], the inhibition in vivo at 10 mg/kg in test [1] (po, 1 h) amounted to 48%. Further, the inhibition at 1 µM was 86.4% in test [2] and 74.6% in test [3].
For `CC(C)(C)c1ccc(C(CCN2CCN(c3ccccc3)CC2)OC(N)=O)cc1` (stereo not drawn) [Example 5, Carbamic acid 1-(4-tert-butyl-phenyl)-3-(4-phenyl-piperazin-1-yl)-propyl ester], in that order: 62%, 98.8% and 44.4%.
`NC(=O)OC(CCN1CCN(c2ccccc2)CC1)c1cccc(Cl)c1` (stereo not drawn) [Example 7, Carbamic acid 1-(3-chloro-phenyl)-3-(4-phenyl-piperazin-1-yl)-propyl ester]: the inhibition in vivo at 10 mg/kg in test [1] (po, 1 h) was determined as 59%. For the same compound, the inhibition at 1 µM was 93.7% in test [2] and 76.4% in test [3].
On to `COc1ccc(C(CCN2CCN(c3ccccc3)CC2)OC(N)=O)cc1` (stereo not drawn) [Example 8, Carbamic acid 1-(4-methoxy-phenyl)-3-(4-phenyl-piperazin-1-yl)-propyl ester], for which the inhibition in vivo at 10 mg/kg in test [1] (po, 1 h) is 43%. Also, the values for the inhibition at 1 µM in test [2] and in test [3] were 82% and 67.7%, respectively.
With `Cc1ccc(C(CCN2CCN(c3ccccc3)CC2)OC(N)=O)cc1` (stereo not drawn) [Example 10, Carbamic acid 3-(4-phenyl-piperazin-1-yl)-1-p-tolyl-propyl ester], the inhibition at 1 µM in test [2] was 85.6%; in test [3] it was 59.6%.
On to `NC(=O)OC(CCN1CCN(c2ccc(F)cc2)CC1)c1ccccc1` (stereo not drawn) [Example 21, Carbamic acid 3-[4-(4-fluoro-phenyl)-piperazin-1-yl]-1-phenyl-propyl ester], for which the inhibition in vivo at 10 mg/kg in test [1] is 88%. Moreover, the IC50 in test [2] is 64.5 nM; in test [3], 1050 nM.
`NC(=O)OC(CCN1CCN(c2ccc(Cl)cc2)CC1)c1ccccc1` (stereo not drawn) [Example 22, Carbamic acid 3-[4-(4-chloro-phenyl)-piperazin-1-yl]-1-phenyl-propyl ester]: the figures for the IC50 in test [2] and in test [3] were 264 nM and 1860 nM, respectively.
With `NC(=O)OC(CCN1CCN(c2ccccn2)CC1)c1ccccc1` (stereo not drawn) [Example 25, Carbamic acid 1-phenyl-3-(4-pyridin-2-yl-piperazin-1-yl)-propyl ester], the IC50 in test [2] was found to be 448 nM; in test [3], 338 nM.
The like results for `COc1cccc(N2CCN(CCC(OC(N)=O)c3ccccc3)CC2)c1` (stereo not drawn) [Example 26, Carbamic acid 3-[4-(3-methoxy-phenyl)-piperazin-1-yl]-1-phenyl-propyl ester] were, in that order, 502 nM and 80.8 nM.
The ED50 is the dose at which the effect has come halfway, by size or by number of responders. Regarding `COc1ccccc1N1CCN(CCC(OC(N)=O)c2ccccc2)CC1` (stereo not drawn) [Example 27, Carbamic acid 3-[4-(2-methoxy-phenyl)-piperazin-1-yl]-1-phenyl-propyl ester], the ED50 in test [1] (po) was determined as 7.8 mg/kg. Also, the values for the IC50 in test [2] and in test [3] were 164 nM and 97.6 nM, respectively.
With `NC(=O)OC(CCN1CCN(c2cccc(Cl)c2)CC1)c1ccccc1` (stereo not drawn) [Example 36, Carbamic acid 3-[4-(3-chloro-phenyl)-piperazin-1-yl]-1-phenyl-propyl ester], the ED50 in test [1] (po) is 17.5 mg/kg. For the same compound, the IC50 in test [2] is 61.5 nM; in test [3] it was 93.8 nM.
As for `NC(=O)OC(CCN1CCN(c2cccc(C(F)(F)F)c2)CC1)c1ccccc1` (stereo not drawn) [Example 39, Carbamic acid 1-phenyl-3-[4-(3-trifluoromethyl-phenyl)-piperazin-1-yl]-propyl ester], the IC50 amounted to 660 nM in test [2] and 12.6 nM in test [3].
`COc1ccccc1N1CCN(CCC(OC(N)=O)c2ccc(F)cc2)CC1` (stereo not drawn) [Example 78, Carbamic acid 1-(4-fluoro-phenyl)-3-[4-(2-methoxy-phenyl)-piperazin-1-yl]-propyl ester]: the inhibition in vivo at 10 mg/kg in test [1] (po, 1 h) was 34%. Moreover, the inhibition at 1 µM in test [2] amounted to 71.5%; in test [3] it was 79%.
Consider `NC(=O)OC(CCN1CCN(c2ccc([N+](=O)[O-])cc2)CC1)c1ccc(F)cc1` (stereo not drawn) [Example 79, Carbamic acid 1-(4-fluoro-phenyl)-3-[4-(4-nitro-phenyl)-piperazin-1-yl]-propyl ester], for which the inhibition in vivo at 10 mg/kg in test [1] (po, 1 h) was determined as 70%. For the same compound, the inhibition at 1 µM in test [2] and in test [3] was 29.6% each time.
Regarding `Cc1ccccc1N1CCN(CCC(OC(N)=O)c2ccc(F)cc2)CC1` (stereo not drawn) [Example 80, Carbamic acid 1-(4-fluoro-phenyl)-3-(4-o-tolyl-piperazin-1-yl)-propyl ester], the inhibition in vivo at 10 mg/kg in test [1] (po, 1 h) is 29%. Besides, the figures for the inhibition at 1 µM in test [2] and in test [3] were 76.8% and 75.3%, respectively.
For `NC(=O)OC(CCN1CCN(c2ccc(F)cc2)CC1)c1ccc(F)cc1` (stereo not drawn) [Example 81, Carbamic acid 1-(4-fluoro-phenyl)-3-[4-(4-fluoro-phenyl)-piperazin-1-yl]-propyl ester], in that order: 52%, 93.9% and 60.9%.
On to `NC(=O)OC(CCN1CCN(C(c2ccc(F)cc2)c2ccc(F)cc2)CC1)c1ccccc1` (stereo not drawn) [Example 93, Carbamic acid 3-{4-[bis-(4-fluoro-phenyl)-methyl]-piperazin-1-yl}-1-phenyl-propyl ester], for which the IC50 in test [2] is 940 nM; in test [3], greater than 10000 nM.
Take `COc1ccccc1N1CCN(CCCC(OC(N)=O)c2ccccc2)CC1` (stereo not drawn) [Example 95, Carbamic acid 4-[4-(2-methoxy-phenyl)-piperazin-1-yl]-1-phenyl-butyl ester]: the figures for the IC50 in test [2] and in test [3] were 1500 nM and 5.82 nM, respectively.
For `NC(=O)OC(CCCN1CCN(c2ccccn2)CC1)c1ccccc1` (stereo not drawn) [Example 96, Carbamic acid 1-phenyl-4-(4-pyridin-2-yl-piperazin-1-yl)-butyl ester], in that order: 3140 nM and 20.4 nM.
For `NC(=O)OC(CCCN1CCN(c2ncccc2Cl)CC1)c1ccccc1` (stereo not drawn) [Example 97, Carbamic acid 4-[4-(3-chloro-pyridin-2-yl)-piperazin-1-yl]-1-phenyl-butyl ester], in that order: 519 nM and 181 nM.
On to `CC(CC(OC(N)=O)c1ccccc1)N1CCN(c2ccc(Cl)c(Cl)c2)CC1` (stereo not drawn) [Example 115, Carbamic acid 3-[4-(3,4-dichloro-phenyl)-piperazin-1-yl]-1-phenyl-butyl ester], for which the inhibition in vivo at 10 mg/kg in test [1] (po, 1 h) came out at 68%.
For `CC(CC(OC(N)=O)c1ccccc1)N1CCN(c2ccc(F)cc2F)CC1` (stereo not drawn) [Example 116, Carbamic acid 3-[4-(2,4-difluoro-phenyl)-piperazin-1-yl]-1-phenyl-butyl ester], the inhibition in vivo at 10 mg/kg in test [1] (po, 1 h) turned out to be 87%.
For the compound `NC(=O)OC(c1ccccc1)C(F)CN1CCN(c2ccccc2)CC1` (stereo not drawn) [Example 117, Carbamic acid 2-fluoro-1-phenyl-3-(4-phenyl-piperazin-1-yl)-propyl ester], the ED50 in test [1] (po) was 32.2 mg/kg.
